Patent US9260439B2, “Dihydropyrrolopyrimidine derivatives” (PFIZER INC., priority 2014, dated 2016)

Columns and labels:
[1] = biological target: truncated PI3Kα (p110α/iSH2 p85α) (Homo sapiens (Human), UniProt P42336); assay: PI3KA_Act fluorescence polarization kinase assay (Ki); assay type: biochemical; details: 1 mM ATP
Method in brief: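 Ki values result from fitting fluorescence polarization signals to the Morrison equation for tight-binding competitive inhibitors. The detector was GST-Grp1 PH domain with TAMRA-PIP3, read after a 30 min room-temperature reaction of 0.5 nM truncated PI3Kα and 30 μM PIP2 at pH 7.4 in HEPES/NaCl/MgCl2/DTT/CHAPS buffer. Compounds were tested as 12-point 3-fold dilutions from 3 μM.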

[2] = biological target: full-length PI3Kα (full-length p110α/p85α) (Homo sapiens (Human), UniProt P42336); assay: PI3KA_FL fluorescence polarization kinase assay (Ki); assay type: biochemical; details: 41 μM ATP
From the text: Enzyme Production for Biochemical Assays: 1) PI3Kα Complex (Full Length p110α and p85α)(“PI3KA_FL”)
Genes encoding for full length p110α and p85α subunits of PI3Kα complex were subcloned from existing constructs into pFASTBAC Dual vector (Life Technologies, Carlsbad, Calif.) using standard cloning procedures. Gene encoding p110α subunit was subcloned into polyhedrine promoter while gene encoding p85α subunit was subcloned into p10 promoter. Additionally, sequence encoding for histidine tag and Tobacco Etch Virus (“TEV”) cleavage site preceded p110α ORF (Open Reading Frame). Recombinant baculovirus was generated using Bac-to-Bac protocol (Life Technologies, Carlsbad, Calif.) and large scale expression was conducted in Sf21 (Life Technologies, Carlsbad, Calif.) cells at a multiplicity of infection (“MOI”)=1 for 72 hours. Cells were lyzed in 50 mM Tris pH 8.0, 250 mM NaCl, 5% glycerol, 0.25 mM TCEP, and 20 mM imidazole. The PI3Kα complex was purified from clarified supernatant using Immobilized Metalo Affinity Chromatography (“IMAC”). The protein was eluted from the column using 50 mM Tris pH 8.0, 200 mM NaCl, 5% glycerol, 0.25 mM TCEP, and 200 mM imidazole, and further desalted into 50 mM Tris pH 8.0, 20 mM NaCl, and 0.25 mM TCEP prior to loading on MonoQ sepharose (GE Healthcare, Piscataway, N.J.). PI3Kα complex was eluted from MonoQ sepharose over 20 column volumes using 0-30% gradient of buffer B (50 mM Tris pH 8.0, 1 M NaCl, and 0.25 mM TCEP). The peak fractions were pulled together and loaded on Superdex 200 26/60 SEC column equilibrated in 50 mM Tris pH 8.0, 200 mM NaCl, and 0.5 mM TCEP. […] Purity and integrity of the complex was confirmed using LCMS, analytical SEC and SDS-PAGE (sodium dodecyl sulfate polyacrylamide gel electrophoresis) analysis.
The biochemical assays of kinase activity of full-length PI3Kα (full-length p110α/p85a) or truncated PI3Kα (p110α/iSH2 p85a) were conducted using a fluorescence polarization format similar to the procedure of Yuan J., et al., (2011) “PF-04691502, a Potent and Selective Oral Inhibitor of PI3K and mTOR Kinases with Antitumor Activity”, Mol Cancer Ther. 10, 2189-2199. The enzymatic reactions were conducted in 50 μL volumes in 96-well plates. The reactions contained human recombinant PI3Kα (2 nM full-length p110α/p85α or 0.5 nM p110α/iSH2 p85) and 30 μM phosphatidylinositol 4,5-bisphosphate (“PIP2”) (Cayman Chemical Company, Ann Arbor, Mich.) and were sonicated for 1 minute prior to adding PI3Kα enzyme (PI3KA_Act or PI3KA_FL), DMSO or test compound (12-point 3-fold serial dilution, 3 μM top dose, 2° A) DMSO final concentration), 5 mM MgCl2, 50 mM HEPES pH 7.4, 150 mM NaCl, 1 mM DTT ((2S,3S)-1,4-bis(sulfanyl)butane-2,3-diol), and 0.05% 3-[(3-cholamidopropyl)dimethylammonio]-1-propanesulfonate (“CHAPS”). […] The reactions were incubated for 30 min at room temperature, stopped with EDTA pH 8 (10 mM final concentration). In a detection plate, 15 μL of detector/probe mixture, containing 480 nM GST-Grp1 PH domain protein (University of Dundee, Dundee, UK) and 12 nM carboxytetramethylrhodamine (“TAMRA”)-tagged fluorescent phosphatidylinositol (3,4,5)-triphosphate (“PIP3”) (Echelon Biosciences, Inc., Salt Lake City, Utah) in assay buffer, was mixed with 15 μL of kinase reaction mixture. The plate was shaken for 30 minutes and fluorescence polarization values were measured on an LJL Analyst HT plate reader (Molecular Devices, Sunnyvale, Calif.). […] The inhibition constants (Ki) were calculated by fitting fluorescence polarization values, corresponding to initial reaction rates, to the Morrison equation (Morrison, J. F. (1969) Kinetics of the reversible inhibition of enzyme catalysed reactions by tight-binding inhibitors. Biochim. Biophys. Acta 185, 269-286) for tight-binding competitive inhibitors using non-linear regression method (GraphPad Prism, GraphPad Software, San Diego, Calif.).

Sequence of truncated PI3Kα (p110α/iSH2 p85α) (P42336 whole entry, the tested form may be a part): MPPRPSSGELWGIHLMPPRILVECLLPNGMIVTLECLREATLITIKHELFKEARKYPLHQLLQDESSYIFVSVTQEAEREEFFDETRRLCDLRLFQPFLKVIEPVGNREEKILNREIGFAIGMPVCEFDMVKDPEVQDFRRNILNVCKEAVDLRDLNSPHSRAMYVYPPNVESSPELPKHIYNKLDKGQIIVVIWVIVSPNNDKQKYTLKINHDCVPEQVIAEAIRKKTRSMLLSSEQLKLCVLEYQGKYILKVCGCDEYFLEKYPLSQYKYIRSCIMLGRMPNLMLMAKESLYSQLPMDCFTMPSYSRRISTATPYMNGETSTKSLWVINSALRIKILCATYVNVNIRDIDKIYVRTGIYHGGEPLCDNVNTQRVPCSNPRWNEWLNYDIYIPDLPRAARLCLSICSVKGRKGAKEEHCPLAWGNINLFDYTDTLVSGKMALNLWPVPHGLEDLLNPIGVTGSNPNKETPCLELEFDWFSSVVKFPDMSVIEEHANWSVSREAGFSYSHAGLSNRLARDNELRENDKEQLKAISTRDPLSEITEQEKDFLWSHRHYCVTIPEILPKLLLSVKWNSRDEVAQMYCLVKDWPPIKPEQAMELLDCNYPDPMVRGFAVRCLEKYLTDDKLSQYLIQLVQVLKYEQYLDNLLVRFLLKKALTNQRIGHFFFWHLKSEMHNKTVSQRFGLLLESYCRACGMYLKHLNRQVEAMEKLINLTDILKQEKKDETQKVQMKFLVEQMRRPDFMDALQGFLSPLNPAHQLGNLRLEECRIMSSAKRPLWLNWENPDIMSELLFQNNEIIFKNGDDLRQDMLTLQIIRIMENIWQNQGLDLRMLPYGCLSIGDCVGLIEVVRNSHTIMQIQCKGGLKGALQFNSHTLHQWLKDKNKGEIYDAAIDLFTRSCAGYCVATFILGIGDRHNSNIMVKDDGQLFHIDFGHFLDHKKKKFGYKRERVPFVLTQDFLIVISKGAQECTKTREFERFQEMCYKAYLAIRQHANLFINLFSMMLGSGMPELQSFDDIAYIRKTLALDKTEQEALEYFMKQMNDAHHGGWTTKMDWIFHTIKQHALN
Sequence of full-length PI3Kα (full-length p110α/p85α) (P42336 whole entry): as the sequence (P42336 whole entry, the tested form may be a part) above
Sequence of full-length PI3Kα (full-length p110α/p85α) (P27986 whole entry partner): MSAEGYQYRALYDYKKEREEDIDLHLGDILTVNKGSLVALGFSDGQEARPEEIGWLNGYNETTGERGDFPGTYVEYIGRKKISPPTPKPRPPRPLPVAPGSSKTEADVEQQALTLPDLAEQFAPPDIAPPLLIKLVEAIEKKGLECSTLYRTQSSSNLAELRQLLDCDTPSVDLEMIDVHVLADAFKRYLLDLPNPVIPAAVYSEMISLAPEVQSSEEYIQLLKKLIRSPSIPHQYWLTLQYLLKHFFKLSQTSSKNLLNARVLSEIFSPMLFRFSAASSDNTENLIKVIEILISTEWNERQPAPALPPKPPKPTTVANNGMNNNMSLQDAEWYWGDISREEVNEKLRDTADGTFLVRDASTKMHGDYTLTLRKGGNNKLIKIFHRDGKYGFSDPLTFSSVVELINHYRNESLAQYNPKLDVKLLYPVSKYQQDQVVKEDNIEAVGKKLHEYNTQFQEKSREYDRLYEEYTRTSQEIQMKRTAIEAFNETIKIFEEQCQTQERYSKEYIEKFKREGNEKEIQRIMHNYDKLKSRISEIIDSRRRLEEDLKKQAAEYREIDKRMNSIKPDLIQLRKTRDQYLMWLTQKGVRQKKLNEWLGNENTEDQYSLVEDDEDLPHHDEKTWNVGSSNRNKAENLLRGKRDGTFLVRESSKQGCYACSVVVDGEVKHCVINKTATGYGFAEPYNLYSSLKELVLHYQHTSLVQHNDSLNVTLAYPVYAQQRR

Row | Compound | PI3KA_Act Ki [1] [nM] | PI3KA_FL Ki (nM) [2] | PI3KA_FL Ki [2] [nM]
1 | CC1(N2CCc3c(-c4cnc(N)nc4)nc(N4CCOCC4)nc32)CCN(S(C)(=O)=O)C1 (racemic) [Example 146] | 0.015 | ≦0.229 nM | –
2 | Nc1ncc(-c2nc(N3CCOCC3)nc3c2CCN3[C@H]2CCC(F)(F)C2)cn1 (single isomer, unassigned) [Example 34] | 0.730 | – | 0.469
3 | Nc1ncc(-c2nc(N3CCOCC3)nc3c2CCN3[C@@H]2CCC(F)(F)C2)cn1 (single isomer, unassigned) [Example 35] | 0.311 | – | 0.393
4 | CC(=O)N1C[C@@H](F)[C@@H](N2CCc3c(-c4cnc(N)nc4)nc(N4CCOCC4)nc32)C1 (single isomer, unassigned) [Example 74] | 2.441 | – | 5.079
5 | CC(C)S(=O)(=O)N1CC(N2CCc3c(-c4cnc(N)nc4)nc(N4CCOC[C@@H]4C)nc32)C1 [Example 1, 5-{2-[(3S)-3-methylmorpholin-4-yl]-7-[1-(propan-2-ylsulfonyl)azetidin-3-yl]-6,7-dihydro-5H-pyrrolo[2,3-d]pyrimidin-4-yl}pyrimidin-2-amine] | 0.102 | ≦0.229 nM | –
6 | Nc1ncc(-c2nc(N3CCOCC3)nc3c2CCN3C2CC(F)(F)C2)cn1 [Example 13] | 0.211 | – | 0.307
7 | CS(=O)(=O)N1CC[C@H](N2CCc3c(-c4cnc(N)nc4)nc(N4CCOCC4)nc32)C1 [Example 20] | 0.153 | ≦0.229 nM | –
8 | CNS(=O)(=O)N1CC[C@H](N2CCc3c(-c4cnc(N)nc4)nc(N4CCOCC4)nc32)C1 [Example 38] | 0.124 | – | 0.228
9 | CNS(=O)(=O)N(C)[C@H]1C[C@H](N2CCc3c(-c4cnc(N)nc4)nc(N4CCOCC4)nc32)C1 [Example 46] | 0.187 | – | 0.412
10 | CNS(=O)(=O)N(C)[C@H]1C[C@@H](N2CCc3c(-c4cnc(N)nc4)nc(N4CCOCC4)nc32)C1 [Example 57] | 0.465 | – | 0.318
11 | N#C[C@H]1C[C@H](N2CCc3c(-c4cnc(N)nc4)nc(N4CCOCC4)nc32)C1 [Example 59] | 0.122 | ≦0.229 nM | –
12 | COC(=O)N1CC(N2CCc3c(-c4cnc(N)nc4)nc(N4CCOCC4)nc32)C1 [Example 61] | 0.235 | – | 0.234
13 | Nc1ncc(-c2nc(N3CCOCC3)nc3c2CCN3C2CN(S(N)(=O)=O)C2)cn1 [Example 72] | 0.129 | ≦0.229 nM | –
14 | CS(=O)(=O)N1CC(N2CCc3c(-c4cnc(N)nc4)nc(N4CCOCC4)nc32)C1 [Example 73] | 0.303 | – | 0.350
15 | C[C@H]1COCCN1c1nc(-c2cnc(N)nc2)c2c(n1)N([C@H]1CCN(C(=O)OC(C)(C)C)C1)CC2 [Example 76] | 0.182 | – | 0.359
16 | C[C@H]1COCCN1c1nc(-c2cnc(N)nc2)c2c(n1)N([C@H]1CCN(S(C)(=O)=O)C1)CC2 [Example 79] | 0.257 | ≦0.229 nM | –
17 | CN(C)S(=O)(=O)N1CC[C@H](N2CCc3c(-c4cnc(N)nc4)nc(N4CCOCC4)nc32)C1 [Example 82] | 0.100 | – | 0.240
18 | CNS(=O)(=O)N1CC[C@@H](N2CCc3c(-c4cnc(N)nc4)nc(N4CCOC[C@@H]4C)nc32)C1 [Example 85] | 0.239 | – | 0.283
19 | CNS(=O)(=O)N1CC[C@@H](N2CCc3c(-c4cnc(N)nc4)nc(N4CCOC[C@@H]4C)nc32)C1 [Example 92] | 0.376 | – | 0.475

Row | Compound | PI3KA_Act Ki [1] [nM] | PI3KA_FL Ki (nM) [2] | PI3KA_FL Ki [2] [nM]
20 | CS(=O)(=O)N1CCC[C@@H](N2CCc3c(-c4cnc(N)nc4)nc(N4CCOCC4)nc32)C1 [Example 93] | 0.603 | – | 0.506
21 | CNS(=O)(=O)O[C@H]1C[C@H](N2CCc3c(-c4cnc(N)nc4)nc(N4CCOCC4)nc32)C1 [Example 95] | 0.078 | ≦0.229 nM | –
22 | C[C@H]1COCCN1c1nc(-c2cnc(N)nc2)c2c(n1)N([C@H]1CCN(S(N)(=O)=O)C1)CC2 [Example 100] | 0.132 | ≦0.229 nM | –
23 | CCS(=O)(=O)N1CC[C@H](N2CCc3c(-c4cnc(N)nc4)nc(N4CCOCC4)nc32)C1 [Example 101] | 0.093 | ≦0.229 nM | –
24 | Nc1ncc(-c2nc(N3CCOCC3)nc3c2CCN3[C@H]2CCN(S(=O)(=O)C3CC3)C2)cn1 [Example 102] | 0.067 | ≦0.229 nM | –
25 | CNS(=O)(=O)O[C@H]1C[C@@H](N2CCc3c(-c4cnc(N)nc4)nc(N4CCOCC4)nc32)C1 [Example 104] | 0.079 | ≦0.229 nM | –
26 | CS(=O)(=O)N[C@H]1C[C@H](N2CCc3c(-c4cnc(N)nc4)nc(N4CCOCC4)nc32)C1 [Example 105] | 0.157 | – | 0.285
27 | CC(C)S(=O)(=O)N1CC[C@H](N2CCc3c(-c4cnc(N)nc4)nc(N4CCOCC4)nc32)C1 [Example 106] | 0.064 | ≦0.229 nM | –
28 | CC(C)OC(=O)N1CC[C@H](N2CCc3c(-c4cnc(N)nc4)nc(N4CCOC[C@@H]4C)nc32)C1 [Example 124] | – | – | 0.333
29 | C[C@H]1COCCN1c1nc(-c2cnc(N)nc2)c2c(n1)N([C@@H]1CN(S(N)(=O)=O)C[C@H]1O)CC2 [Example 127] | – | – | 0.789
30 | CN(C)S(=O)(=O)[C@H]1CC[C@@H](N2CCc3c(-c4cnc(N)nc4)nc(N4CCOCC4)nc32)C1 [Example 129] | – | – | 0.380
31 | CNS(=O)(=O)[C@H]1CC[C@@H](N2CCc3c(-c4cnc(N)nc4)nc(N4CCOCC4)nc32)C1 [Example 130] | – | – | 0.352
32 | COCCOC(=O)N1CC[C@H](N2CCc3c(-c4cnc(N)nc4)nc(N4CCOC[C@@H]4C)nc32)C1 [Example 133] | – | – | 0.468
33 | CC(C)N1CCc2c(-c3cnc(N)nc3)nc(N3CCOCC3)nc21 [Example 134] | – | – | 3.883
34 | CC(C)(C)NC(=O)N1CC[C@@H](N2CCc3c(-c4cnc(N)nc4)nc(N4CCOCC4)nc32)C1 [Example 135] | – | – | 5.159
35 | Nc1ncc(-c2nc(N3CCOCC3)nc3c2CCN3[C@@H]2CC[C@H](S(N)(=O)=O)C2)cn1 [Example 137] | – | – | 0.664
36 | C[C@H]1COCCN1c1nc(-c2cnc(N)nc2)c2c(n1)N([C@@H]1CCN(C(=O)NC(C)(C)C)C1)CC2 [Example 138] | – | – | 5.547
37 | CC(C)(C)NC(=O)N1CC[C@H](N2CCc3c(-c4cnc(N)nc4)nc(N4CCOCC4)nc32)C1 [Example 139] | – | – | 0.596
